Common to all, as to format: functional, organism-based
Test [1] concerns Deroceras reticulatum. The experiment in a line: Molluscicidal activity against Deroceras reticulatum in Chinese cabbage at 0.8 g/m2 after 7 to 42 days by miniplot trial analysis in presence of 65.4 mm rainfall.
For test [2], the system named is Deroceras reticulatum. The experiment in a line: Molluscicidal activity against Deroceras reticulatum in Chinese cabbage at 0.8 g/m2 after 21 to 42 days by miniplot trial analysis in presence of 135 mm rainfall.
The subject of test [3] is Arion subfuscus. The experiment in a line: Molluscicidal activity against Arion subfuscus in Chinese cabbage at 0.8 g/m2 after 7 days by miniplot trial analysis in presence of 135 mm rainfall.
In test [4] the test system is Deroceras reticulatum. The test can be described thus: Molluscicidal activity against Deroceras reticulatum in Chinese cabbage at 0.8 g/m2 after 7 to 42 days.
The subject of test [5] is Deroceras reticulatum. The experiment in a line: Molluscicidal activity against Deroceras reticulatum in Chinese cabbage at 0.8 g/m2 after 7 to 14 days by miniplot trial analysis in presence of 135 mm rainfall.
The test system of test [6] is Arion subfuscus. The test can be described thus: Molluscicidal activity against Arion subfuscus in Chinese cabbage at 0.8 g/m2 after 21 to 28 days by miniplot trial analysis in presence of 65.8 mm rainfall.
For test [7], the system named is Deroceras panormitanum. The test can be described thus: Molluscicidal activity against Deroceras panormitanum assessed as reduction of slug number at 0.8 g/m2 after 42 days.
The test system of test [8] is Arion subfuscus. The test can be described thus: Molluscicidal activity against Arion subfuscus assessed as reduction of slug number at 0.8 g/m2 after 42 days.
The subject of test [9] is Arion subfuscus. The test can be described thus: Molluscicidal activity against Arion subfuscus in Chinese cabbage at 0.8 g/m2 after 7 to 42 days by miniplot trial analysis in presence of 65.4 mm rainfall.
Test [10] relates to Arion subfuscus. The test can be described thus: Molluscicidal activity against Arion subfuscus in Chinese cabbage at 0.8 g/m2 after 7 to 14 days by miniplot trial analysis in presence of 135 mm rainfall.
For test [11], the system named is Deroceras reticulatum. The test can be described thus: Molluscicidal activity against Deroceras reticulatum in Chinese cabbage at 0.8 g/m2 after 7 to 28 days by miniplot trial analysis in presence of 65.8 mm rainfall.
For test [12], the system named is Deroceras reticulatum. The test can be described thus: Molluscicidal activity against Deroceras reticulatum in Chinese cabbage at 0.8 g/m2 after 7 days by miniplot trial analysis in presence of 135 mm rainfall.
Test [13] relates to Deroceras reticulatum. The experiment in a line: Molluscicidal activity against Deroceras reticulatum assessed as reduction of slug number at 0.8 g/m2 after 42 days.
In test [14] the test system is Arion subfuscus. The test can be described thus: Molluscicidal activity against Arion subfuscus in Chinese cabbage at 0.8 g/m2 after 7 to 42 days by miniplot trial analysis in presence of 17 mm rainfall.
In test [15] the test system is Arion subfuscus. The test can be described thus: Molluscicidal activity against Arion subfuscus in Chinese cabbage at 0.8 g/m2 after 7 to 14 days by miniplot trial analysis in presence of 65.8 mm rainfall.
The subject of test [16] is Arion subfuscus. The test can be described thus: Molluscicidal activity against Arion subfuscus in Chinese cabbage at 0.8 g/m2 after 21 to 42 days by miniplot trial analysis in presence of 135 mm rainfall.
The test system of test [17] is Arion subfuscus. The test can be described thus: Molluscicidal activity against Arion subfuscus in Chinese cabbage at 0.8 g/m2 after 7 to 42 days.
For test [18], the system named is Deroceras reticulatum. The test can be described thus: Molluscicidal activity against Deroceras reticulatum in Chinese cabbage at 0.8 g/m2 after 7 to 42 days by miniplot trial analysis in presence of 17 mm rainfall.
For test [19], the system named is Deroceras reticulatum. The experiment in a line: Molluscicidal activity against Deroceras reticulatum in Chinese cabbage at 5 g/m2 after 7 to 42 days by miniplot trial analysis in presence of 17 mm rainfall.
For test [20], the system named is Arion subfuscus. The test can be described thus: Molluscicidal activity against Arion subfuscus in Chinese cabbage at 5 g/m2 after 7 to 42 days by miniplot trial analysis in presence of 17 mm rainfall.
The test system of test [21] is Deroceras reticulatum. The experiment in a line: Molluscicidal activity against Deroceras reticulatum in Chinese cabbage at 5 g/m2 after 7 to 28 days by miniplot trial analysis in presence of 65.8 mm rainfall.
Test [22] concerns Arion subfuscus. The test can be described thus: Molluscicidal activity against Arion subfuscus in Chinese cabbage at 5 g/m2 after 7 to 14 days by miniplot trial analysis in presence of 65.8 mm rainfall.
In test [23] the test system is Arion subfuscus. The experiment in a line: Molluscicidal activity against Arion subfuscus in Chinese cabbage at 5 g/m2 after 21 to 28 days by miniplot trial analysis in presence of 65.8 mm rainfall.

The source made the active and inactive calls. No cut-off for these calls is given here.

Take `CC1OC(C)OC(C)OC(C)O1` (stereo not drawn): the outcome in test [1], in test [2], in test [3], in [4], in test [5] and in [9] was Active. In addition, the result in test [10], in test [11], in test [12], in test [14], in test [15] and in [16] was Active. The result in test [17] and in [18] was Active. Further, the outcome in test [6], in [7], in test [8] and in test [13] was inactive.
In the case of IRON PHOSPHATE, the outcome in [19], in [20], in test [21] and in test [22] was Active. For the same molecule, the result in [23] was inactive.

The values above are taken from ChEMBL document CHEMBL3044863, “Optimization of biological (Phasmarhabditis hermaphrodita) and chemical (iron phosphate and metaldehyde) slug control” (Crop Prot, 2009).
